Experimental data reported in the supplement of paper PMC9912026.

Tested on: A375_aEGFR2
Experiment: pERK immunofluorescence normalised to no-drug reference (=1); higher = more ERK phosphorylation (less pathway inhibition)
Details: drug treatment time 24 h, EGF time 8 h
Experimental: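 A375 CRISPRa-EGFR (A375_aEGFR2) or HT29 cells were treated with two-drug dose combinations (vemurafenib, LY3009120, cobimetinib) for 24 h, then stimulated with EGF (100 ng/mL) or mock medium for 8 h. pERK (T202/Y204) was measured by immunofluorescence as the cytosolic population average, normalised to an untreated no-drug reference of the block (=1). Averages of 2 technical replicates. A375 in 5% FBS, HT29 in 10% FBS.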

CCCS(=O)(=O)Nc1ccc(F)c(C(=O)c2c[nH]c3ncc(-c4ccc(Cl)cc4)cc23)c1F [Vemurafenib] + CNc1ncc2cc(-c3cc(NC(=O)NCCC(C)(C)C)c(F)cc3C)c(C)nc2n1 [LY3009120]
pERK immunofluorescence normalised
Details	EGF 0 ng/mL	EGF 100 ng/mL
drug A concentration 0 µM, drug B concentration 0.0001 µM	1.02	1.04
drug A concentration 0 µM, drug B concentration 0.000316228 µM	1.03	1.07
drug A concentration 0 µM, drug B concentration 0.001 µM	1.06	1.02
drug A concentration 0 µM, drug B concentration 0.00316228 µM	0.865	0.989
drug A concentration 0 µM, drug B concentration 0.01 µM	0.696	0.807
drug A concentration 0 µM, drug B concentration 0.0316228 µM	0.376	0.565
drug A concentration 0 µM, drug B concentration 0.1 µM	0.193	0.368
drug A concentration 0 µM, drug B concentration 0.316228 µM	0.157	0.264
drug A concentration 0 µM, drug B concentration 1 µM	0.149	0.175
drug A concentration 0 µM, drug B concentration 3.16228 µM	0.153	0.149
drug A concentration 0.000316228 µM, drug B concentration 0 µM	1.03	0.99
drug A concentration 0.000316228 µM, drug B concentration 0.0001 µM	1.03	0.996
drug A concentration 0.000316228 µM, drug B concentration 0.000316228 µM	1.03	1.02
drug A concentration 0.000316228 µM, drug B concentration 0.001 µM	0.876	0.959
drug A concentration 0.000316228 µM, drug B concentration 0.00316228 µM	0.793	0.849
drug A concentration 0.000316228 µM, drug B concentration 0.01 µM	0.488	0.648
drug A concentration 0.000316228 µM, drug B concentration 0.0316228 µM	0.263	0.454
drug A concentration 0.000316228 µM, drug B concentration 0.1 µM	0.168	0.312
drug A concentration 0.000316228 µM, drug B concentration 0.316228 µM	0.151	0.206
drug A concentration 0.000316228 µM, drug B concentration 1 µM	0.15	0.155
drug A concentration 0.000316228 µM, drug B concentration 3.16228 µM	0.15	0.14
drug A concentration 0.001 µM, drug B concentration 0 µM	1	1.02
drug A concentration 0.001 µM, drug B concentration 0.0001 µM	1.01	0.999
drug A concentration 0.001 µM, drug B concentration 0.000316228 µM	0.997	0.982
drug A concentration 0.001 µM, drug B concentration 0.001 µM	0.96	0.953
drug A concentration 0.001 µM, drug B concentration 0.00316228 µM	0.806	0.892
drug A concentration 0.001 µM, drug B concentration 0.01 µM	0.501	0.635
drug A concentration 0.001 µM, drug B concentration 0.0316228 µM	0.278	0.468
drug A concentration 0.001 µM, drug B concentration 0.1 µM	0.168	0.331
drug A concentration 0.001 µM, drug B concentration 0.316228 µM	0.148	0.215
drug A concentration 0.001 µM, drug B concentration 1 µM	0.15	0.156
drug A concentration 0.001 µM, drug B concentration 3.16228 µM	0.149	0.134
drug A concentration 0.00316228 µM, drug B concentration 0 µM	0.995	0.977
drug A concentration 0.00316228 µM, drug B concentration 0.0001 µM	1.05	0.996
drug A concentration 0.00316228 µM, drug B concentration 0.000316228 µM	0.961	1.04
drug A concentration 0.00316228 µM, drug B concentration 0.001 µM	0.922	0.953
drug A concentration 0.00316228 µM, drug B concentration 0.00316228 µM	0.781	0.836
drug A concentration 0.00316228 µM, drug B concentration 0.01 µM	0.534	0.641
drug A concentration 0.00316228 µM, drug B concentration 0.0316228 µM	0.27	0.456
drug A concentration 0.00316228 µM, drug B concentration 0.1 µM	0.167	0.305
drug A concentration 0.00316228 µM, drug B concentration 0.316228 µM	0.145	0.212
drug A concentration 0.00316228 µM, drug B concentration 1 µM	0.15	0.154
drug A concentration 0.00316228 µM, drug B concentration 3.16228 µM	0.149	0.139
drug A concentration 0.01 µM, drug B concentration 0 µM	0.897	0.969
drug A concentration 0.01 µM, drug B concentration 0.0001 µM	0.912	0.967
drug A concentration 0.01 µM, drug B concentration 0.000316228 µM	0.891	0.96
drug A concentration 0.01 µM, drug B concentration 0.001 µM	0.889	0.91
drug A concentration 0.01 µM, drug B concentration 0.00316228 µM	0.732	0.789
drug A concentration 0.01 µM, drug B concentration 0.01 µM	0.471	0.625
drug A concentration 0.01 µM, drug B concentration 0.0316228 µM	0.28	0.469
drug A concentration 0.01 µM, drug B concentration 0.1 µM	0.165	0.311
drug A concentration 0.01 µM, drug B concentration 0.316228 µM	0.15	0.205
drug A concentration 0.01 µM, drug B concentration 1 µM	0.153	0.157
drug A concentration 0.01 µM, drug B concentration 3.16228 µM	0.148	0.138
drug A concentration 0.0316228 µM, drug B concentration 0 µM	0.695	0.896
drug A concentration 0.0316228 µM, drug B concentration 0.0001 µM	0.759	0.9
drug A concentration 0.0316228 µM, drug B concentration 0.000316228 µM	0.727	0.935
drug A concentration 0.0316228 µM, drug B concentration 0.001 µM	0.745	0.852
drug A concentration 0.0316228 µM, drug B concentration 0.00316228 µM	0.669	0.768
drug A concentration 0.0316228 µM, drug B concentration 0.01 µM	0.457	0.635
drug A concentration 0.0316228 µM, drug B concentration 0.0316228 µM	0.251	0.454
drug A concentration 0.0316228 µM, drug B concentration 0.1 µM	0.166	0.319
drug A concentration 0.0316228 µM, drug B concentration 0.316228 µM	0.146	0.216
drug A concentration 0.0316228 µM, drug B concentration 1 µM	0.152	0.156
drug A concentration 0.0316228 µM, drug B concentration 3.16228 µM	0.15	0.138
drug A concentration 0.1 µM, drug B concentration 0 µM	0.453	0.761
drug A concentration 0.1 µM, drug B concentration 0.0001 µM	0.436	0.789
drug A concentration 0.1 µM, drug B concentration 0.000316228 µM	0.465	0.802
drug A concentration 0.1 µM, drug B concentration 0.001 µM	0.482	0.771
drug A concentration 0.1 µM, drug B concentration 0.00316228 µM	0.416	0.719
drug A concentration 0.1 µM, drug B concentration 0.01 µM	0.321	0.61
drug A concentration 0.1 µM, drug B concentration 0.0316228 µM	0.206	0.45
drug A concentration 0.1 µM, drug B concentration 0.1 µM	0.161	0.329
drug A concentration 0.1 µM, drug B concentration 0.316228 µM	0.152	0.229
drug A concentration 0.1 µM, drug B concentration 1 µM	0.151	0.161
drug A concentration 0.1 µM, drug B concentration 3.16228 µM	0.147	0.137
drug A concentration 0.316228 µM, drug B concentration 0 µM	0.252	0.767
drug A concentration 0.316228 µM, drug B concentration 0.0001 µM	0.262	0.764
drug A concentration 0.316228 µM, drug B concentration 0.000316228 µM	0.264	0.746
drug A concentration 0.316228 µM, drug B concentration 0.001 µM	0.292	0.721
drug A concentration 0.316228 µM, drug B concentration 0.00316228 µM	0.295	0.653
drug A concentration 0.316228 µM, drug B concentration 0.01 µM	0.266	0.579
drug A concentration 0.316228 µM, drug B concentration 0.0316228 µM	0.203	0.431
drug A concentration 0.316228 µM, drug B concentration 0.1 µM	0.158	0.293
drug A concentration 0.316228 µM, drug B concentration 0.316228 µM	0.146	0.19
drug A concentration 0.316228 µM, drug B concentration 1 µM	0.149	0.149
drug A concentration 0.316228 µM, drug B concentration 3.16228 µM	0.146	0.137
drug A concentration 1 µM, drug B concentration 0 µM	0.192	0.784
drug A concentration 1 µM, drug B concentration 0.0001 µM	0.185	0.755
drug A concentration 1 µM, drug B concentration 0.000316228 µM	0.191	0.728
drug A concentration 1 µM, drug B concentration 0.001 µM	0.204	0.725
drug A concentration 1 µM, drug B concentration 0.00316228 µM	0.211	0.678
drug A concentration 1 µM, drug B concentration 0.01 µM	0.201	0.598
drug A concentration 1 µM, drug B concentration 0.0316228 µM	0.184	0.467
drug A concentration 1 µM, drug B concentration 0.1 µM	0.159	0.308
drug A concentration 1 µM, drug B concentration 0.316228 µM	0.152	0.195
drug A concentration 1 µM, drug B concentration 1 µM	0.149	0.149
drug A concentration 1 µM, drug B concentration 3.16228 µM	0.152	0.137
drug A concentration 3.16228 µM, drug B concentration 0 µM	0.176	0.761
drug A concentration 3.16228 µM, drug B concentration 0.0001 µM	0.165	0.663
drug A concentration 3.16228 µM, drug B concentration 0.000316228 µM	0.172	0.678
drug A concentration 3.16228 µM, drug B concentration 0.001 µM	0.168	0.701
drug A concentration 3.16228 µM, drug B concentration 0.00316228 µM	0.171	0.649
drug A concentration 3.16228 µM, drug B concentration 0.01 µM	0.169	0.625
drug A concentration 3.16228 µM, drug B concentration 0.0316228 µM	0.165	0.508
drug A concentration 3.16228 µM, drug B concentration 0.1 µM	0.156	0.337
drug A concentration 3.16228 µM, drug B concentration 0.316228 µM	0.145	0.197
drug A concentration 3.16228 µM, drug B concentration 1 µM	0.147	0.15
drug A concentration 3.16228 µM, drug B concentration 3.16228 µM	0.15	0.156
drug A concentration 10 µM, drug B concentration 0 µM	0.164	0.668
drug A concentration 10 µM, drug B concentration 0.0001 µM	0.172	0.644
drug A concentration 10 µM, drug B concentration 0.000316228 µM	0.166	0.629
drug A concentration 10 µM, drug B concentration 0.001 µM	0.167	0.651
drug A concentration 10 µM, drug B concentration 0.00316228 µM	0.171	0.663
drug A concentration 10 µM, drug B concentration 0.01 µM	0.177	0.628
drug A concentration 10 µM, drug B concentration 0.0316228 µM	0.172	0.553
drug A concentration 10 µM, drug B concentration 0.1 µM	0.165	0.335
drug A concentration 10 µM, drug B concentration 0.316228 µM	0.166	0.228
drug A concentration 10 µM, drug B concentration 1 µM	0.157	0.177
drug A concentration 10 µM, drug B concentration 3.16228 µM	0.162	0.153
